Data reported in PubChem BioAssay AID1963972 (Molecular Pharmacology Branch, DTP, NCI, 2024).

Test system: 945468-187-T-J2-PDC spheroids viability
Assay: Anticancer human tumor 945468-187-T-J2-PDC patient-derived rectal carcinoma cell line growth inhibition [PI3K]
Settings: spheroids with HUVEC and MSC; for IC50: curve of first compound; for viability, T/C: stronger effect = lower value
Summary of the method: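 Stroma-containing spheroids: tumor line, pooled-donor HUVEC, hMSC. Treatments: targeted agents with PI3K inhibitors. Dosing: clinically relevant, half-log spacing, 10 microM ceiling without known Cmax. Read-out: cell viability.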

[1] = second compound 0.00316 µM, first compound 0.0316 µM
[2] = second compound 0.00316 µM, first compound 0.1 µM
[3] = second compound 0.01 µM, first compound 0.0316 µM
[4] = second compound 0.01 µM, first compound 0.1 µM
[5] = second compound 0.0316 µM, first compound 0.0316 µM
[6] = second compound 0.0316 µM, first compound 0.1 µM
[7] = second compound 0.1 µM, first compound 0.0316 µM
[8] = second compound 0.1 µM, first compound 0.1 µM
[9] = second compound 0.316 µM, first compound 0.0316 µM
[10] = second compound 0.316 µM, first compound 0.1 µM
[11] = second compound 1 µM, first compound 0.0316 µM
[12] = second compound 1 µM, first compound 0.1 µM
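Further: spheroids exposed to compounds for seven days before reading.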

## C[C@@H](NC(=O)c1ncnc(N)c1Cl)c1ncc(C(=O)Nc2cc(C(F)(F)F)c(Cl)cn2)s1 + COc1c(OCCCN2CCOCC2)ccc2c3n(c(=NC(=O)c4cnc(N)nc4)nc12)CCN3
Second compound 0.00316 µM
  IC50: > 10 µM
Second compound 0.01 µM
  IC50: > 10 µM
Second compound 0.0316 µM
  IC50: > 10 µM
Second compound 0.1 µM
  IC50: > 10 µM
Second compound 0.316 µM
  IC50: < 0.0316 µM
Second compound 1 µM
  IC50: < 0.0316 µM
[1]
  viability, T/C: 109%
[2]
  viability, T/C: 115%
Second compound 0.00316 µM, first compound 0.316 µM
  viability, T/C: 116%
Second compound 0.00316 µM, first compound 1 µM
  viability, T/C: 113%
Second compound 0.00316 µM, first compound 3.16 µM
  viability, T/C: 99.3%
Second compound 0.00316 µM, first compound 10 µM
  viability, T/C: 102%
[3]
  viability, T/C: 133%
[4]
  viability, T/C: 119%
Second compound 0.01 µM, first compound 0.316 µM
  viability, T/C: 126%
Second compound 0.01 µM, first compound 1 µM
  viability, T/C: 119%
Second compound 0.01 µM, first compound 3.16 µM
  viability, T/C: 112%
Second compound 0.01 µM, first compound 10 µM
  viability, T/C: 125%
[5]
  viability, T/C: 108%
[6]
  viability, T/C: 94.6%
Second compound 0.0316 µM, first compound 0.316 µM
  viability, T/C: 111%
Second compound 0.0316 µM, first compound 1 µM
  viability, T/C: 142%
Second compound 0.0316 µM, first compound 3.16 µM
  viability, T/C: 96%
Second compound 0.0316 µM, first compound 10 µM
  viability, T/C: 122%
[7]
  viability, T/C: 94%
[8]
  viability, T/C: 102%
Second compound 0.1 µM, first compound 0.316 µM
  viability, T/C: 94.9%
Second compound 0.1 µM, first compound 1 µM
  viability, T/C: 95%
Second compound 0.1 µM, first compound 3.16 µM
  viability, T/C: 92.7%
Second compound 0.1 µM, first compound 10 µM
  viability, T/C: 92%
[9]
  viability, T/C: 46%
[10]
  viability, T/C: 49.3%
Second compound 0.316 µM, first compound 0.316 µM
  viability, T/C: 50.9%
Second compound 0.316 µM, first compound 1 µM
  viability, T/C: 57.7%
Second compound 0.316 µM, first compound 3.16 µM
  viability, T/C: 53.5%
Second compound 0.316 µM, first compound 10 µM
  viability, T/C: 63.9%
[11]
  viability, T/C: 24.4%
[12]
  viability, T/C: 26.1%
Second compound 1 µM, first compound 0.316 µM
  viability, T/C: 25.6%
Second compound 1 µM, first compound 1 µM
  viability, T/C: 22%
Second compound 1 µM, first compound 3.16 µM
  viability, T/C: 23.5%
Second compound 1 µM, first compound 10 µM
  viability, T/C: 26.8%

## Cn1ncnc1[C@H]1c2n[nH]c(=O)c3cc(F)cc(c23)N[C@@H]1c1ccc(F)cc1 + COc1c(OCCCN2CCOCC2)ccc2c3n(c(=NC(=O)c4cnc(N)nc4)nc12)CCN3
Second compound 0.00316 µM
  IC50: > 0.1 µM
Second compound 0.01 µM
  IC50: > 0.1 µM
Second compound 0.0316 µM
  IC50: > 0.1 µM
Second compound 0.1 µM
  IC50: > 0.1 µM
Second compound 0.316 µM
  IC50: < 0.000316 µM
Second compound 1 µM
  IC50: < 0.000316 µM
Second compound 0.00316 µM, first compound 0.000316 µM
  viability, T/C: 107%
Second compound 0.00316 µM, first compound 0.001 µM
  viability, T/C: 114%
Second compound 0.00316 µM, first compound 0.00316 µM
  viability, T/C: 90.7%
Second compound 0.00316 µM, first compound 0.01 µM
  viability, T/C: 104%
[1]
  viability, T/C: 97.3%
[2]
  viability, T/C: 108%
Second compound 0.01 µM, first compound 0.000316 µM
  viability, T/C: 105%
Second compound 0.01 µM, first compound 0.001 µM
  viability, T/C: 128%
Second compound 0.01 µM, first compound 0.00316 µM
  viability, T/C: 101%
Second compound 0.01 µM, first compound 0.01 µM
  viability, T/C: 84%
[3]
  viability, T/C: 98.4%
[4]
  viability, T/C: 96.8%
Second compound 0.0316 µM, first compound 0.000316 µM
  viability, T/C: 98.7%
Second compound 0.0316 µM, first compound 0.001 µM
  viability, T/C: 107%
Second compound 0.0316 µM, first compound 0.00316 µM
  viability, T/C: 85.3%
Second compound 0.0316 µM, first compound 0.01 µM
  viability, T/C: 104%
[5]
  viability, T/C: 95.2%
[6]
  viability, T/C: 88.5%
Second compound 0.1 µM, first compound 0.000316 µM
  viability, T/C: 93.2%
Second compound 0.1 µM, first compound 0.001 µM
  viability, T/C: 75.7%
Second compound 0.1 µM, first compound 0.00316 µM
  viability, T/C: 83.6%
Second compound 0.1 µM, first compound 0.01 µM
  viability, T/C: 81.3%
[7]
  viability, T/C: 84.3%
[8]
  viability, T/C: 88.1%
Second compound 0.316 µM, first compound 0.000316 µM
  viability, T/C: 34%
Second compound 0.316 µM, first compound 0.001 µM
  viability, T/C: 35.2%
Second compound 0.316 µM, first compound 0.00316 µM
  viability, T/C: 43.5%
Second compound 0.316 µM, first compound 0.01 µM
  viability, T/C: 39.3%
[9]
  viability, T/C: 39.3%
[10]
  viability, T/C: 44%
Second compound 1 µM, first compound 0.000316 µM
  viability, T/C: 21%
Second compound 1 µM, first compound 0.001 µM
  viability, T/C: 19.7%
Second compound 1 µM, first compound 0.00316 µM
  viability, T/C: 23.7%
Second compound 1 µM, first compound 0.01 µM
  viability, T/C: 22.8%
[11]
  viability, T/C: 20.2%
[12]
  viability, T/C: 20.8%
